Measured values as given in patent US20240024403A1, “Compositions and Methods for Managing Weight” (Unigen, Inc., priority 2012, published 2024).

Assay: High fat diet induced obesity (DIO) mouse model
Assay type: in vivo, C57CL/6J mice
Conditions: DIO mice
Description: C57CL/6J mice aged 4-6 weeks (Korea Research Institute of Bioscience & Biotechnology, Ohchang, Korea) were housed in Polycarbonate cages (five mice per cage) in a room with a 12 hr:12 hr light-dark cycle and an ambient temperature of 24° C. All the mice were fed a commercial chow diet for 1 week after arrival in the animal facility. Mice were then divided into normal and obesity groups and fed with normal diet (ND) and high fat diets (HFD) respectively. The HFD group was divided into multiple treatment groups: a high fat diet vehicle group (HFD), an orlistat (purchased as OTC drug Alli®) positive control treatment group (ORI, 40 mg/kg of animal weight, 2 times/day) and optionally a sibutramine positive control treatment group (10 mg/kg, 1 time/day). The HFD contained 340 g of fat/kg of HFD (310 g lard plus 30 g soybean oil; Harlan Laboratories, USA). The HFD was formulated to provide 60% of the total energy generated by the diet from fat by replacing carbohydrate energy with lard and soybean oil, whereas the normal diet (ND) group was fed a diet providing only 18% of the total diet energy from fat(Harlan Laboratories, USA).
Body weight was measured once each week and feed intake was measured twice per week. At the end of the experimental period, following a 12 hr. fasting period, the animals were anesthetized with ether, and blood was drawn from the abdominal vein. Liver and kidney and adipose tissues (epididymal, retroperitoneal, perirenal adipose tissues) were removed from each animal, rinsed with physiological saline, and weighed. Serum concentrations of glucose, total cholesterol, triglycerides, and LDL-cholesterol were determined using automatic analyzer (INTEGRA 400, Roche, Germany). Statistical significance of test results was measured using the Student's t-test.

[1] = G1-G4 1000 mg/kg oral gavage two times per day
[2] = G1-G4 1000 mg/kg oral gavage two times per day, in g (unit assumed)
[3] = G1 = 800 mg/kg orally twice a day
[4] = G1 = 1,100 mg/kg orally twice a day
[5] = G1 = 1,200 mg/kg orally twice a day
[6] = Mean score, G1 1,300 mg/kg twice a day
[7] = Mean, Composition 11 (G1) 1,300 mg/kg twice a day, oral
[8] = Mean, G1 1,300 mg/kg twice a day

CCCCCCCCCCC[C@@H](C[C@@H]1OC(=O)[C@H]1CCCCCC)OC(=O)[C@H](CC(C)C)NC=O [ORI, orlistat]
Food Intake [1]: 2.675 g/day
Weight Gain [1]: 0.015 g/day
Absolute Organ Weight, Epididymal Fat [2]: 1.998
Absolute Organ Weight, Liver [2]: 1.184
ALP [3]: 177.35 U/L
ALT [3]: 23.03 U/L
AST [3]: 51.40 U/L
Absolute Organ Weight: Epididymal fat [3]: 2.03 g
Absolute Organ Weight: Liver [3]: 1.19 g
Absolute Organ Weight: PeriRenal fat [3]: 0.29 g
Absolute Organ Weight: Retroperitoneal fat [3]: 0.5 g
Body Weight Gain [3]: -0.004 g/day
Food Intake [3]: 3.147 g/day
LDL-C [3]: 4.28 mg/dL
T-chol [3]: 155.83 mg/dL
TG [3]: 88.33 mg/dL
TP [3]: 5.08 g/dL
ALT [4]: 23.03 U/L
AST [4]: 51.40 U/L
Absolute Organ Weight: Epididymal Fat [4]: 2.03 g
Absolute Organ Weight: Liver [4]: 1.19 g
Absolute Organ Weight: PeriRenal Fat [4]: 0.29 g
Absolute Organ Weight: Retroperitoneal Fat [4]: 0.5 g
Body Weight Gain [4]: -0.004 g/day
Food Intake [4]: 3.147 g/day
LDL-C [4]: 4.28 mg/dL
T-chol [4]: 155.83 mg/dL
TG [4]: 88.33 mg/dL
TP [4]: 5.08 g/dL
ALT [5]: 23.03 U/L
AST [5]: 51.40 U/L
Absolute Organ Weight: Epididymal Fat [5]: 2.03 g
Absolute Organ Weight: Liver [5]: 1.19 g
Absolute Organ Weight: PeriRenal Fat [5]: 0.29 g
Absolute Organ Weight: Retroperitoneal Fat [5]: 0.5 g
Food Intake [5]: 3.147 g/day
LDL-C [5]: 4.28 mg/dL
T-chol [5]: 155.83 mg/dL
TG [5]: 88.33 mg/dL
TP [5]: 5.08 g/dL
Weight Gain [5]: -0.004 g/day
Liver pathology: Hepatocellular ballooning (0-2) [6]: 0.33
Liver pathology: Lobular Inflammation (0-3) [6]: 1.50
Liver pathology: Steatosis (0-3) [6]: 0.33
Body Weight Gain [7]: -0.004 g/day
Food Intake [7]: 3.147 g/day
ALP [8]: 177.35 U/L
ALT [8]: 23.03 U/L
AST [8]: 51.40 U/L
Absolute Organ Weight: Epididymal Fat [8]: 2.03 g
Absolute Organ Weight: Liver [8]: 1.19 g
Absolute Organ Weight: PeriRenal Fat [8]: 0.29 g
Absolute Organ Weight: Retroperitoneal Fat [8]: 0.5 g
HDL-C [8]: 75.57 mg/dL
LDL-C [8]: 4.28 mg/dL
TP [8]: 5.08 g/dL
FER (Food efficiency ratio) (Mean, body weight gain (g/day)/food intake (g/day), G1 1,300 mg/kg twice a day): −0.001
Liver pathology: NSAH (sum) (Mean, sum of scores, G1 1,300 mg/kg twice a day): 2.17
Absolute organ weight: Total Fat (Mean, sum of the three fat pads, G1 1,300 mg/kg twice a day): 2.82 g
FER (Food efficiency ratio) (ORI group, mean, Table 136): 0.000
Food Intake (ORI group, mean, Table 136): 3.195 g/day
Weight Gain (ORI group, mean, Table 136): 0.000 g/day
ALT (ORI group, mean, Table 137): 21.83 U/L
AST (ORI group, mean, Table 137): 65.65 U/L
